Data published in US8980587B2, “Process for producing reveromycin A or a synthetic intermediate thereof, process for producing compounds containing a spiroketal ring and novel antineoplastics, fungicides and therapeutic agents for bone disorders” (RIKEN, priority 2010, dated 2015).
Values after ≈ are worked out from the molar mass of the structure shown. Where two headings read alike, the source gives them in different places.

Columns and labels:
[1] = tested on: HL-60 cells (human acute promyelocytic leukemia cell line); experiment: Growth-inhibiting activity against animal cells (WST-8), HL-60; type: cell-based; settings: for IC50: Homo sapiens, read-out: HL60 IC50
Protocol: (§1) HL-60 cells (human acute promyelocytic leukemia cell line) and K562 cells (human chronic myeloid leukemia cell line) were maintained in a culture medium in which RPMI1640 medium (manufactured by Invitrogen) was added with 10% fetal bovine serum (manufactured by Nichirei), 0.5% penicillin/streptomycin solution (manufactured by Invitrogen) at 37° C. under a humidified culture of 5% CO2. tsFT210 cells (mouse breast cancer cells CDC2 temperature sensitive strain) were maintained in a culture medium in which RPMI1640 medium (manufactured by Invitrogen) was added with 5% calf serum (manufactured by Hyclone) and 0.5% penicillin/streptomycin solution at 32° C. under a humidified culture of 5% CO2.
(§2) HL-60 cells and K562 cells were seeded in a 96-well plate (manufactured by IWAKI) so as to be 1.5×10^4 cells/well/100 μl. tsFT210 cells were seeded in a 96-well plate so as to be 1.6×10^4 cell/well/100 μl. Each of the agents in Table 5 was added at 0.5% (v/v). HL-60 cells and K562 cells were maintained at 37° C. under a humidified culture of 5% CO2 and tsFT210 cells were maintain at 32° C. under a humidified culture of 5% CO2. Forty eight hours after addition of the agent, 10 μl of a reagent SF solution for counting live cells (WST-8 reagent, manufactured by Nakarai tesque) was added to each well. HL-60 cells and K562 cells were maintained at 37° C. under a humidified culture of 5% CO2 for 30 minutes and tsFT210 cells were maintain at 32° C. under a humidified culture of 5% CO2 for one hour. After the reaction, absorbance at 450 nm was measured using a microplate reader (manufactured by PerkinElmer) and a cell proliferation rate was determined from the measurement value.

[2] = tested on: K562 cells (human chronic myeloid leukemia cell line); experiment: Growth-inhibiting activity against animal cells (WST-8), K562; type: cell-based
Protocol: as §1, §2

[3] = tested on: tsFT210 cells (mouse breast cancer cells CDC2 temperature sensitive strain); experiment: Growth-inhibiting activity against animal cells (WST-8), tsFT210; type: cell-based
Protocol: as §1, §2

[4] = tested on: Escherichia coli (HO141 strain); experiment: Growth-inhibiting activity against Escherichia coli; type: cell-based; settings: 6 hours, absorbance at 600 nm, read-out: E. coli IC50
Protocol: Escherichia coli (HO141 strain) was precultured in culture medium of 0.5% Polypeptone, 0.5% Meat Extract, 0.3% NaCl, and 0.001% Sodium Dodecyl Sulfate (SDS) at 37° C. Absorbance at 600 nm was measured, and Escherichia coli solution was prepared such that the absorbance is 0.005 and seeded 100 μl each in a 96-well plate. Each of the agents in Table 5 was added at 0.5% (v/v) and maintained at 37° C. Six hours after addition of the agent, absorbance at 600 nm was measured using a microplate reader (manufactured by PerkinElmer) and a proliferation rate was determined from the measurement value.

[5] = tested on: Budding yeast (MLC30M strain); experiment: Growth-inhibiting activity against yeast; type: cell-based; settings: Saccharomyces cerevisiae, read-out: Yeast IC50
Protocol: Budding yeast (MLC30M strain) was precultured in a culture medium of 2% Polypeptone, 1% yeast extract, 2% glucose, 0.02% adenine, and 0.001% sodium dodecyl sulfate (SDS) at 30° C. Absorbance at 600 nm was measured, and yeast solution was prepared such that the absorbance is 0.05 and seeded 100 μl each in a 96-well plate. Each of the agents in Table 5 was added at 0.5% (v/v) and maintained at 30° C. Eighteen hours after addition of the agent, absorbance at 600 nm was measured using a microplate reader (manufactured by PerkinElmer) and a proliferation rate was determined from the measurement value.

[6] = molecular target: T1, Isoleucyl tRNA synthetase (Homo sapiens, UniProt P41252); experiment: Inhibitory activity against isoleucyl tRNA synthetase; type: biochemical; settings: HT1080 cell lysate, [3H]isoleucine, 25° C., 20 minutes; read-out: IRS IC50 (converted)
T1 construct: 10 μg protein (HT1080 cell lysate); endogenous in cells; host or cells: HT1080 cell lysate
T1 sequence (P41252 1-1262): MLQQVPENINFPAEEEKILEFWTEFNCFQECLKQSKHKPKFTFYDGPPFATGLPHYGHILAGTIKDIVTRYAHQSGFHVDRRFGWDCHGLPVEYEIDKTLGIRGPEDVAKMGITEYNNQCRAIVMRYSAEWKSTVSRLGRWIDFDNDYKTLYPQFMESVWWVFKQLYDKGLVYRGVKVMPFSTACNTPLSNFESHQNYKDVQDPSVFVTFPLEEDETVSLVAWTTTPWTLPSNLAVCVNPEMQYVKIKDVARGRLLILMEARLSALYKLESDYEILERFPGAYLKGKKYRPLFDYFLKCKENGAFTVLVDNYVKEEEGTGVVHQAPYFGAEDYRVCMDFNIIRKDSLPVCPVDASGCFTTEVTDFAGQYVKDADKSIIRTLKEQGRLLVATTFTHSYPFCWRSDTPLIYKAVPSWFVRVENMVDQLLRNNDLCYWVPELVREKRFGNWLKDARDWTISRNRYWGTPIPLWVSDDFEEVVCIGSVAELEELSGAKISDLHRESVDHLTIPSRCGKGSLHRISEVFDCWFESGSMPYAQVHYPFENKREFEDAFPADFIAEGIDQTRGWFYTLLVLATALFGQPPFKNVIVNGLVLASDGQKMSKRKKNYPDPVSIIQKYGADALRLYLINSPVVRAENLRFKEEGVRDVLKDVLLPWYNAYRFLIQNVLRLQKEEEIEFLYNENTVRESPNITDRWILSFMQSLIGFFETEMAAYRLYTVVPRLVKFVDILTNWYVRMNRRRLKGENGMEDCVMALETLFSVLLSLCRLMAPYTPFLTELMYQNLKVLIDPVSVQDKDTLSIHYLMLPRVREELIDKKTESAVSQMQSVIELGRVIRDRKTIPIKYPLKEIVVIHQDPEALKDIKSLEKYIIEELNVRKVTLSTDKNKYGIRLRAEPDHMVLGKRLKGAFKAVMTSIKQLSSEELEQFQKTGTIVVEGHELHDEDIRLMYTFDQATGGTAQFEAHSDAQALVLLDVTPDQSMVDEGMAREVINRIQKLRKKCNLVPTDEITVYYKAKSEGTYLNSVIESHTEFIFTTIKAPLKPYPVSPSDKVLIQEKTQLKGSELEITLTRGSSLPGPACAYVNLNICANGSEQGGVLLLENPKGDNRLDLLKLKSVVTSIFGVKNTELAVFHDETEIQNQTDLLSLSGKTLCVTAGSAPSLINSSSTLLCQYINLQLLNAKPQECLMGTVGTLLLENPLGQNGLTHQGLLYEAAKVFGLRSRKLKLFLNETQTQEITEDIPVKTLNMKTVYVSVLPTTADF
Protocol: To a solution for enzymatic reaction [20 mM imidazole, pH 7.5, 75 mM MgCl2, 0.5 mM DTT, 1 U/ml tRNA (E. coli origin, manufactured by Sigma), 3 mM ATP, 1 μM isoleucine, 10 μCi/ml [^3H]isoleucine (manufactured by GE Healthcare), 10 μg protein (HT1080 cell lysate)], each of the agents in Table 5 was added at 1% (v/v) so as to attain a total amount of 100 μl and a reaction was carried out at 25° C. for 20 minutes. One mg/ml BSA solution (400 μl) and 10% TCA solution (500 μl) were then added thereto to terminate the reaction and left to stand at 4° C. overnight. A precipitate obtained by a centrifugal operation was transferred onto GF-C filter (manufactured by Whatman), washed three times with 5% TCA solution, followed by drying the filter. Two milliliters of aquasol-2 (manufactured by PerkinElmer) and the filter were placed in a vial and vigorously stirred, and then the amount of [^3H]isoleucine was measured by a liquid scintillation counter (manufactured by Beckman) to determine a rate of enzyme activity.

[7] = HL-60 cells, 48 hours after addition of the agent, WST-8
[8] = K562 cells, 48 hours after addition of the agent, WST-8, read-out: K562 IC50
[9] = tsFT210 cells, 32° C., 48 hours after addition of the agent, WST-8, read-out: tsFT210 IC50
[10] = MLC30M strain, 18 hours, absorbance at 600 nm
[11] = K562, 48 h, read-out: K562 IC50
[12] = tsFT210, 48 h, read-out: tsFT210 IC50

SMILES | IC50 [1, 7] [µg/mL] | IC50 [2, 8] [µg/mL] | IC50 [3, 9] [µg/mL] | IC50 [4] [µg/mL] | IC50 [5, 10] [µg/mL] | IC50 ([1]; HL-60, 48 h) [µg/mL] | cancer cell growth-inhibiting activity (in words) ([1]; summary of Table 5 (HL60, K562, tsFT210), RM-T as compared with RM-A) | IC50 [2, 11] [µg/mL] | IC50 [3, 12] [µg/mL] | IC50 ([5]; 18 h) [µg/mL] | IC50 [6] [µM]
CCCCC1CCC(CCC(C)C(O)C/C=C(C)/C=C/C(O)C(C)/C=C/C(=O)O)OC1/C=C/C(C)=C/CC(O)CC (stereo not drawn) [RM-A1b] | 7.4 (≈ 12.9 µM) | 21.1 (≈ 36.7 µM) | 17.4 (≈ 30.3 µM) | 31.9 (≈ 55.5 µM) | > 50 | – | – | – | – | – | –
CCCC[C@H]1CC[C@]2(CC[C@H](C)[C@@H](C/C=C(C)/C=C/[C@H](O)[C@@H](C)/C=C/C(=O)OC)O2)O[C@H]1/C=C/C(C)=C/C(=O)O [RM-T methyl-ester] | – | – | – | > 50 | – | 0.9 (≈ 1.61 µM) | high | 2.5 (≈ 4.47 µM) | 8.2 (≈ 14.7 µM) | > 50 | –
CCCCC(CCC(O)CCC(C)C(O)C/C=C(C)/C=C/C(O)C(C)/C=C/C(=O)O)C(O)/C=C/C(C)=C/C(=O)O (stereo not drawn) [RM-A1e] | > 30 | > 30 | > 30 | > 50 | 48.2 (≈ 85.3 µM) | – | – | – | – | – | –
CCCCC(CCC(O)CCC(C)C(O)C/C=C(C)/C=C/C(O)C(C)/C=C/C(=O)O)C(O)C/C=C(C)/C=C/C(=O)CC (stereo not drawn) [RM-A2b] | > 30 | > 30 | > 30 | > 50 | > 50 | – | – | – | – | – | –
CC(/C=C/[C@H](O)[C@@H](C)/C=C/C(=O)O)=C\C[C@H]1O[C@]2(CC[C@H](C)[C@H](/C=C/C(C)=C/C(=O)O)O2)CC[C@@H]1C [SF-B, spirofungin B, reference compound] | > 30 | > 30 | > 30 | > 50 | 4 (≈ 7.96 µM) | – | – | – | – | – | –
CCCCC1CCC2(CCC(C)C(C/C=C(C)/C=C/C(O)C(C)/C=C/C(=O)O)O2)OC1/C=C/C(C)=C/CO (stereo not drawn) [RM-A6a] | – | – | – | 24.6 (≈ 46.3 µM) | – | 7 (≈ 13.2 µM) | – | 14.8 (≈ 27.9 µM) | 6.8 (≈ 12.8 µM) | 31.5 (≈ 59.4 µM) | –
CC(/C=C/[C@H](O)[C@@H](C)/C=C/C(=O)O)=C\C[C@H]1O[C@@]2(CC[C@H](C)[C@H](/C=C/C(C)=C/C(=O)O)O2)CC[C@@H]1C [SF-A, spirofungin A, reference compound] | 1.2 (≈ 2.39 µM) | 3.4 (≈ 6.76 µM) | > 30 | > 50 | 0.3 (≈ 0.597 µM) | – | – | – | – | – | –
CCCC[C@@]1(OC(=O)CCC(=O)O)CC[C@]2(CC[C@H](C)[C@@H](C/C=C(C)/C=C/[C@H](O)[C@@H](C)/C=C/C(=O)O)O2)O[C@H]1/C=C/C(C)=C/CO [RM-A9a] | – | – | – | > 50 | – | 21 (≈ 32.5 µM) | – | 22.3 (≈ 34.5 µM) | 24.6 (≈ 38 µM) | 26.4 (≈ 40.8 µM) | –
CCCCC1CCC2(CCC(C)C(C/C=C(C)/C=C/C(O)C(C)/C=C/C(=O)O)O2)OC1/C=C/C(C)=C/CC(O)CC (stereo not drawn) [RM-A1c] | – | – | – | > 50 | – | 6.3 (≈ 11 µM) | – | 3.4 (≈ 5.94 µM) | 6.4 (≈ 11.2 µM) | > 50 | 16.8
CCCCC1CCC2(CCC(C)C(C/C=C(C)/C=C/C(O)C(C)/C=C/C(=O)O)O2)OC1/C=C/C(C)=C/COC(=O)CC (stereo not drawn) [RM-A8a] | – | – | – | > 50 | – | 18 (≈ 30.7 µM) | – | 18.5 (≈ 31.5 µM) | 22.3 (≈ 38 µM) | > 50 | –
CCCCC(CCC(O)CCC(C)C(O)C/C=C(C)/C=C/C(O)C(C)/C=C/C(=O)O)C(O)/C=C/C(C)=C/CC(O)CC (stereo not drawn) [RM-A1a] | 20.9 (≈ 35.3 µM) | > 30 | > 30 | > 50 | > 50 | – | – | – | – | – | –
